Data published in ChEMBL document CHEMBL1147590, “Synthesis and antitumor activity of s-tetrazine derivatives” (Bioorg Med Chem Lett, 2004).

Experiments:
[1] = system: A549; assay: In vitro rate of inhibition of A-549 tumor cell growth at 10E-7 mol/L; assay type: functional, Homo sapiens; conditions: at 0.1 µM
[2] = system: P388; assay: In vitro rate of inhibition of P388 tumor cell growth at 10E-6 mol/L; assay type: functional, Mus musculus; conditions: at 1 µM
[3] = system: P388; assay: In vitro rate of inhibition of P388 tumor cell growth at 10E-7 mol/L; assay type: functional, Mus musculus; conditions: at 0.1 µM
[4] = system: A549; assay: In vitro rate of inhibition of A-549 tumor cell growth at 10E-8 mol/L; assay type: functional, Homo sapiens; conditions: at 0.01 µM
[5] = system: A549; assay: In vitro rate of inhibition of A-549 tumor cell growth at 10E-6 mol/L; assay type: functional, Homo sapiens; conditions: at 1 µM
[6] = system: A549; assay: In vitro rate of inhibition of A-549 tumor cell growth at 10E-5 mol/L; assay type: functional, Homo sapiens; conditions: at 10 µM
[7] = system: P388; assay: In vitro rate of inhibition of P388 tumor cell growth at 10E-5 mol/L; assay type: functional, Mus musculus; conditions: at 10 µM
[8] = system: P388; assay: In vitro rate of inhibition of P388 tumor cell growth at 10E-8 mol/L; assay type: functional, Mus musculus; conditions: at 0.01 µM
[9] = system: P388; assay: In vitro rate of inhibition of P388 tumor cell growth at 10E-4 mol/L; assay type: functional, Mus musculus; conditions: at 100 µM
[10] = system: A549; assay: In vitro rate of inhibition of A-549 tumor cell growth at 10E-4 mol/L; assay type: functional, Homo sapiens; conditions: at 100 µM

Row | Structure (SMILES) | Rate of inhibition [1] | Rate of inhibition [2] | Rate of inhibition [3] | Rate of inhibition [4] | Rate of inhibition [5] | Rate of inhibition [6] | Rate of inhibition [7] | Rate of inhibition [8] | Rate of inhibition [9] | Rate of inhibition [10]
1 | COC(=O)N1C(c2ccccc2)=NN=C(c2ccccc2)N1C(=O)OC | 0% | 11.6% | 5.2% | 0% | 0% | 0% | 14.6% | 3.3% | 50.5% | 35.5%
2 | c1ccc(C2=NNC(c3ccccc3)=NN2)cc1 | 0% | 5.4% | 10.2% |  | 0% | 69% | 67.2% |  | 55.8% | 87.6%
3 | COC(=O)N1N=C(C)N=NC1C (configuration not stated) | 0% | 0% | 11.3% | 0% | 0% | 19.6% | 7.8% | 5.7% | 60.5% | 75.9%
4 | CCC1NN(C(C)=O)C(CC)NN1C(C)=O (configuration not stated) | 2.9% | 0% | 0% | 0% | 10.1% | 9.7% | 0% | 0% | 38.9% | 47.5%
5 | Cc1cccnc1-c1nnc(-c2ncccc2C)nn1 |  |  |  |  |  | 0% | 3.6% |  | 2.6% | 0%
6 | CCCCCOC(=O)N1N=C(C)N=NC1C (configuration not stated) | 1.1% | 7.3% | 0% | 7.6% | 0% | 4.6% | 19.8% | 0% | 42.6% | 22.8%
7 | CCCOC(=O)N1N=C(C)N=NC1C (configuration not stated) | 0% | 9% | 8.7% | 0% | 0% | 11% | 13.5% | 5.2% | 34.8% | 16.7%
8 | CC(C)C(=O)N1N=C(c2ccccc2)NN=C1c1ccccc1 | 29.6% | 52% | 24.9% | 29.5% | 38.7% | 46.6% | 61.1% | 46.9% | 82.5% | 83.8%
9 | CC1=NN(C(=O)Nc2cccc(C(F)(F)F)c2)C(C)=NN1C(=O)Nc1cccc(C(F)(F)F)c1 | 10.7% | 9.5% | 0% | 16.1% | 8.9% | 10.7% | 28.6% | 0% | 73% | 39.3%
10 | CC1=NN(C(=O)OCc2ccccc2)C(C)N=N1 (configuration not stated) | 0% | 2% | 2.3% | 0% | 0% | 0% | 3% | 1% | 24.1% | 0%
11 | C1=CN(c2nnc(N3C=CN=CC3)nn2)CC=N1 | 0% | 0% | 0% | 0% | 0% | 3.9% | 0% | 0% | 69.9% | 60.6%
